Assay results as given in PubChem BioAssay AID1963965 (Molecular Pharmacology Branch, DTP, NCI, 2024).
pIC50: −log10 of the molar value.

System: 996289-038-R-J1-PDC spheroid viability
Experiment: Anticancer human tumor 996289-038-R-J1-PDC patient-derived colon adenocarcinoma cell line growth inhibition [PI3K]
Conditions: spheroids with HUVEC and MSC; for viability, T/C: stronger effect = lower value
Method in brief: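 Three cell types, namely tumor cells, endothelial cells and mesenchymal stem cells, formed each spheroid. Combinations with four PI3K inhibitors were screened at clinically achievable concentrations decreasing by half-log, and spheroid viability was recorded.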

[1] = curve of first compound, second compound 0.0316 µM
[2] = curve of first compound, second compound 0.1 µM
[3] = curve of first compound, second compound 0.316 µM
[4] = curve of first compound, second compound 1 µM
[5] = second compound 0.0316 µM, first compound 0.0316 µM
[6] = second compound 0.0316 µM, first compound 0.1 µM
[7] = second compound 0.0316 µM, first compound 0.316 µM
[8] = second compound 0.0316 µM, first compound 1 µM
[9] = second compound 0.0316 µM, first compound 3.16 µM
[10] = second compound 0.0316 µM, first compound 10 µM
[11] = second compound 0.1 µM, first compound 0.0316 µM
[12] = second compound 0.1 µM, first compound 0.1 µM
[13] = second compound 0.1 µM, first compound 0.316 µM
[14] = second compound 0.1 µM, first compound 1 µM
[15] = second compound 0.1 µM, first compound 3.16 µM
[16] = second compound 0.1 µM, first compound 10 µM
[17] = second compound 0.316 µM, first compound 0.0316 µM
[18] = second compound 0.316 µM, first compound 0.1 µM
[19] = second compound 0.316 µM, first compound 0.316 µM
[20] = second compound 0.316 µM, first compound 1 µM
[21] = second compound 0.316 µM, first compound 3.16 µM
[22] = second compound 0.316 µM, first compound 10 µM
[23] = second compound 1 µM, first compound 0.0316 µM
[24] = second compound 1 µM, first compound 0.1 µM
[25] = second compound 1 µM, first compound 0.316 µM
[26] = second compound 1 µM, first compound 1 µM
[27] = second compound 1 µM, first compound 3.16 µM
[28] = second compound 1 µM, first compound 10 µM
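Note: spheroids exposed to compounds for seven days before viability read.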
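Throughout, for viability, T/C: luminescence used as a proxy for viable cell amount; percent viability relative to DMSO vehicle control as 100%.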

With `CC(C)NCC(C(=O)N1CCN(c2ncnc3c2C(C)CC3O)CC1)c1ccc(Cl)cc1` (stereo unspecified) + Cc1nc(NC(=O)N2CCCC2C(N)=O)sc1-c1ccnc(C(C)(C)C(F)(F)F)c1 the pIC50 [1] was < 5.00, the pIC50 [2] was < 5.00 and the pIC50 [3] was < 5.00. The pIC50 [4] was < 5.00, the pIC50 (curve of first compound, second compound 3.16 µM) was 5.30 and the pIC50 (curve of first compound, second compound 10 µM) was > 7.50. The viability, T/C [5] was 82.8%, the viability, T/C [6] was 92.3% and the viability, T/C [7] was 85.9%. For the same molecule, the viability, T/C [8] was 97.7%, the viability, T/C [9] was 85.2% and the viability, T/C [10] was 66.7%. The viability, T/C [11] was 82.4%, the viability, T/C [12] was 81% and the viability, T/C [13] was 97.9%. The viability, T/C [14] was 82.1%, the viability, T/C [15] was 82.1% and the viability, T/C [16] was 66.2%. The viability, T/C [17] was 76.5%, the viability, T/C [18] was 88.8% and the viability, T/C [19] was 81.7%. The viability, T/C [20] was 69.2%, the viability, T/C [21] was 78.4% and the viability, T/C [22] was 54.5%. It also gave a viability, T/C [23] of 68.7%, a viability, T/C [24] of 60.7% and a viability, T/C [25] of 67.8%. The viability, T/C [26] was 69.5%, the viability, T/C [27] was 59.5% and the viability, T/C [28] was 51%. The viability, T/C (second compound 3.16 µM, first compound 0.0316 µM) was 61%, the viability, T/C (second compound 3.16 µM, first compound 0.1 µM) was 60% and the viability, T/C (second compound 3.16 µM, first compound 0.316 µM) was 60.7%. The viability, T/C (second compound 3.16 µM, first compound 1 µM) was 59.1%, the viability, T/C (second compound 3.16 µM, first compound 3.16 µM) was 57% and the viability, T/C (second compound 3.16 µM, first compound 10 µM) was 40.1%. For the same molecule, the viability, T/C (second compound 10 µM, first compound 0.0316 µM) was 45.7%, the viability, T/C (second compound 10 µM, first compound 0.1 µM) was 35.9% and the viability, T/C (second compound 10 µM, first compound 0.316 µM) was 43.5%. The viability, T/C (second compound 10 µM, first compound 1 µM) was 45.9%, the viability, T/C (second compound 10 µM, first compound 3.16 µM) was 34.3% and the viability, T/C (second compound 10 µM, first compound 10 µM) was 28.2%.
For `C[C@@H](NC(=O)c1ncnc(N)c1Cl)c1ncc(C(=O)Nc2cc(C(F)(F)F)c(Cl)cn2)s1` + COc1c(OCCCN2CCOCC2)ccc2c3n(c(=NC(=O)c4cnc(N)nc4)nc12)CCN3, the pIC50 (curve of first compound, second compound 0.00316 µM) was < 5.00, the pIC50 (curve of first compound, second compound 0.01 µM) was < 5.00 and the pIC50 [1] was < 5.00. For the same molecule, the pIC50 [2] was < 5.00, the pIC50 [3] was > 7.50 and the pIC50 [4] was > 7.50. It also gave a viability, T/C (second compound 0.00316 µM, first compound 0.0316 µM) of 89.7%, a viability, T/C (second compound 0.00316 µM, first compound 0.1 µM) of 88% and a viability, T/C (second compound 0.00316 µM, first compound 0.316 µM) of 95.1%. For the same molecule, the viability, T/C (second compound 0.00316 µM, first compound 1 µM) was 112%, the viability, T/C (second compound 0.00316 µM, first compound 3.16 µM) was 131% and the viability, T/C (second compound 0.00316 µM, first compound 10 µM) was 136%. For the same molecule, the viability, T/C (second compound 0.01 µM, first compound 0.0316 µM) was 96.6%, the viability, T/C (second compound 0.01 µM, first compound 0.1 µM) was 87% and the viability, T/C (second compound 0.01 µM, first compound 0.316 µM) was 96.2%. For the same molecule, the viability, T/C (second compound 0.01 µM, first compound 1 µM) was 116%, the viability, T/C (second compound 0.01 µM, first compound 3.16 µM) was 98% and the viability, T/C (second compound 0.01 µM, first compound 10 µM) was 109%. For the same molecule, the viability, T/C [5] was 94.3%, the viability, T/C [6] was 78.9% and the viability, T/C [7] was 86.7%. It also gave a viability, T/C [8] of 81.9%, a viability, T/C [9] of 92.7% and a viability, T/C [10] of 77.8%. The viability, T/C [11] was 68.7%, the viability, T/C [12] was 57.1% and the viability, T/C [13] was 69.2%. The viability, T/C [14] was 67.7%, the viability, T/C [15] was 71.3% and the viability, T/C [16] was 58.7%. For the same molecule, the viability, T/C [17] was 42%, the viability, T/C [18] was 36.2% and the viability, T/C [19] was 35.7%. The viability, T/C [20] was 52.9%, the viability, T/C [21] was 43.3% and the viability, T/C [22] was 37.3%. The viability, T/C [23] was 22.3%, the viability, T/C [24] was 16.1% and the viability, T/C [25] was 19.3%. It also gave a viability, T/C [26] of 21.7%, a viability, T/C [27] of 29% and a viability, T/C [28] of 22.6%.
For `CCN1CCN(Cc2ccc(Nc3ncc(F)c(-c4cc(F)c5nc(C)n(C(C)C)c5c4)n3)nc2)CC1`, the viability, T/C (compound 0.00316 µM) was 99.6% [middle of 4 runs], the viability, T/C (compound 0.01 µM) was 91.2% [middle of 4 runs] and the viability, T/C (compound 0.0316 µM) was 94% [middle of 4 runs]. For the same molecule, the viability, T/C (compound 0.1 µM) was 85.2% [middle of 4 runs], the viability, T/C (compound 0.316 µM) was 85.7% [middle of 4 runs] and the viability, T/C (compound 1 µM) was 85.3% [middle of 4 runs]. The pIC50 (curve of compound) was < 6.00.
